Experimental findings from ChEMBL document CHEMBL1201862, “PubChem BioAssay data set” (2004) are described below.

Experiment in all cases: growth of human tumour cells (NCI), 48 h
Experiment [1] deals with SNB-75.
For experiment [2], the system named is SK-OV-3.
Experiment [3] concerns HT-29.
In experiment [4] the test system is SNB-19.
The test system of experiment [5] is RXF 393.
The subject of experiment [6] is MOLT-4.
Experiment [7] has as its system HCC 2998.
The test system of experiment [8] is HL-60.
The test system of experiment [9] is NCI-H522.
The subject of experiment [10] is LOX IMVI.
For experiment [11], the system named is IGROV-1.
For experiment [12], the system named is SF-295.
Experiment [13] relates to ACHN.
For experiment [14], the system named is HCT-15.
Experiment [15] relates to OVCAR-4.
The test system of experiment [16] is K562.
For experiment [17], the system named is A498.
Experiment [18] concerns HOP-62.
In experiment [19] the test system is SN12C.

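Dose response: 5 concentrations. Exposure: 48 h. Format: 96-well plates. Endpoint: linear interpolation; highest concentration if not reached. GI50 marks 50% less growth.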 The source made the active and inactive calls. Cut-off read from the data, not from the text of the source: active = GI50 up to about 1.1 µM and inactive = higher.

For the molecule `CCOC(=O)c1c2ccc(/C=C/c3ccccn3)ccc-2c(C(=O)OCC)c1N`, the GI50 in [1], in [2], in experiment [3], in [4], in experiment [5] and in experiment [6] was > 100 µM (inactive) in each case. Moreover, the GI50 is > 100 µM (inactive) in experiment [7]; 89.1 µM (inactive) in [8]; 91 µM (inactive) in experiment [9]; > 100 µM (inactive) in experiment [10]; > 100 µM (inactive) in experiment [11]; > 100 µM (inactive) in experiment [12]. For the same molecule, the GI50 was 73.5 µM (inactive) in experiment [13]; over 100 µM in experiment [14]; 37.6 µM (inactive) in experiment [15]; > 100 µM (inactive) in experiment [16]; 24.8 µM (inactive) in [17].
As to `COc1cc([C@@H]2c3cc4c(cc3[C@@H](NCc3ccccc3)C3COC(=O)[C@@H]32)OCO4)cc(OC)c1O` (stereo not given in full), the GI50 in experiment [1] is 6.21 µM (inactive); in experiment [2], 6.52 µM (inactive); in experiment [3], 16.4 µM (inactive); in experiment [18], 4 µM (inactive); in experiment [4], 4.86 µM (inactive); in experiment [5], 20.8 µM (inactive). Besides, the GI50 in experiment [6] is 0.891 µM (active); in [7], 17.1 µM (inactive); in experiment [8], 2.74 µM (inactive); in experiment [10], 5.25 µM (inactive); in experiment [11] it was 21.3 µM (inactive); in [12], 4.03 µM (inactive). Further, the GI50 in experiment [13] was 1.17 µM (inactive); in experiment [14], 6.34 µM; in experiment [15], 38.2 µM (inactive); in experiment [16], 16.6 µM (inactive); in experiment [17] it was 6.05 µM (inactive); in experiment [19], 3.28 µM (inactive).
On to `CC1/C(=N\O)CC(c2ccccc2)N(C)C1c1ccccc1` (stereo not given), for which the GI50 in experiment [1], in experiment [2], in experiment [3], in experiment [18], in experiment [4] and in experiment [5] was > 100 µM (inactive) each time. For the same molecule, the GI50 in [6], in experiment [7], in experiment [8], in experiment [9], in experiment [10] and in [11] was > 100 µM (inactive) in each case. The GI50 was > 100 µM (inactive) in experiment [12]; > 100 µM (inactive) in experiment [13]; over 100 µM in [14]; > 100 µM (inactive) in experiment [15]; > 100 µM (inactive) in [16]; > 100 µM (inactive) in [17]. Besides, the GI50 in experiment [19] is > 100 µM (inactive).
For `CC(N)CC(=O)O` (stereo not given), the GI50 in [1], in [2], in [3], in experiment [5], in [6] and in experiment [7] was > 5000 µM (inactive) each time. For the same molecule, the GI50 in [8] is > 5000 µM (inactive); in experiment [9] it was > 5000 µM (inactive); in experiment [11], > 5000 µM (inactive); in experiment [12] it was > 5000 µM (inactive); in experiment [13] it was > 5000 µM (inactive); in [14], over 5000 µM. The GI50 in experiment [15], in [16], in experiment [17] and in experiment [19] was > 5000 µM (inactive) in each case.
